Article PMC7180830, “Scaffold Hopping in Discovery of HIV-1 Non-Nucleoside Reverse Transcriptase Inhibitors: From CH(CN)-DABOs to CH(CN)-DAPYs” (Molecules, 2020)

How the values were obtained:
HIV-1 IIIB = test: Anti-HIV assay against wild-type HIV-1 (IIIB) in MT-4 cells, MTT method; type: cell-based; details: for SI (selectivity index, ratio CC50/EC50 (WT)): CC50/EC50 WT HIV-1 IIIB, MT-4 cells; for EC50: Human immunodeficiency virus 1, IIIB, MT4, read-out: EC50 HIV-1 IIIB
Description: (§1) Untreated HIV- and mock-infected cell samples were included as controls. […] Five days after infection, the viability of mock- and HIV-infected cells was examined spectrophotometrically using the MTT assay. […] All data were calculated using the median absorbance value of three wells.

[1] = Cytotoxicity in mock-infected MT-4 cells, MTT method; details: human, mock-infected (uninfected) MT-4 cells
Description: as §1

[2] = test system: HIV-1 L100I mutant strain; test: Anti-HIV assay against L100I mutant strain in MT-4 cells; type: cell-based; details: Human immunodeficiency virus 1, MT4, read-out: EC50 L100I
Description: (§2) Evaluation of the antiviral activity of the compounds against HIV in MT-4 cells was performed using the MTT assay as previously described [24, 25]. […] Prior to use in our assays, every freshly grown virus stock was the subject of a genotypic analysis. In addition to the genotypic analysis, every stock was subject to a phenotypic analysis using a panel of relevant reference compounds in MT-4 cells. […] Stock solutions (10× final concentration) of test compounds were added in 25 μL volumes to two series of triplicate wells so as to allow simultaneous evaluation of their effects on mock- and HIV-infected cells at the beginning of each experiment. Serial 5-fold dilutions of test compounds were made directly in flat-bottomed 96-well microtiter trays using a Biomek 3000 robot (Beckman instruments, Fullerton, CA). Untreated HIV- and mock-infected cell samples were included as controls. HIV stock (50 μL) at 100–300 CCID50 (50% cell culture infectious doses) and culture medium (final 200 μL volume per well) were added to either the infected or mock-infected wells of the microtiter tray. Mock-infected cells were used to evaluate the effects of test compounds on uninfected cells in order to assess the cytotoxicity of the test compounds. Exponentially growing MT-4 cells were centrifuged for 5 min at 220× g and the supernatant was discarded. The MT-4 cells were resuspended at 6 × 10^5 cells/mL and 50 μL volumes were transferred to the microtiter tray wells. Five days after infection, the viability of mock- and HIV-infected cells was examined spectrophotometrically using the MTT assay. The MTT assay is based on the reduction of yellow colored 3-(4,5-dimethylthiazol-2-yl)-2,5-diphenyltetrazolium bromide (MTT) (Acros Organics, Geel, Belgium) by mitochondrial dehydrogenase activity in metabolically active cells to a blue-purple formazan that can be measured spectrophotometrically. The absorbances were read in an eight-channel computer-controlled photometer (Infinite M1000, Tecan, Männedorf, Switzerland) at two wavelengths (540 and 690 nm). All data were calculated using the median absorbance value of three wells.

[3] = test system: HIV-1 K103N mutant strain; test: Anti-HIV assay against K103N mutant strain in MT-4 cells; type: cell-based; details: Human immunodeficiency virus 1, MT4, read-out: EC50 K103N
Description: as §2

[4] = test system: HIV-1 Y181C mutant strain; test: Anti-HIV assay against Y181C mutant strain in MT-4 cells; type: cell-based; details: Human immunodeficiency virus 1, MT4, read-out: EC50 Y181C
Description: as §2

[5] = test system: HIV-1 E138K mutant strain; test: Anti-HIV assay against E138K mutant strain in MT-4 cells; type: cell-based; details: Human immunodeficiency virus 1, MT4, read-out: EC50 E138K
Description: as §2

[6] = test system: HIV-1 F227L + V106A mutant strain; test: Anti-HIV assay against double mutant F227L + V106A in MT-4 cells; type: cell-based; details: Human immunodeficiency virus 1, MT4, read-out: EC50 F227L + V106A
Description: as §2

[7] = test system: HIV-1 K103N + Y181C mutant strain; test: Anti-HIV assay against double mutant K103N + Y181C in MT-4 cells; type: cell-based; details: Human immunodeficiency virus 1, MT4, read-out: EC50 K103N + Y181C
Description: as §2

WT HIV-1 RT = target: T1, WT HIV-1 RT (Human immunodeficiency virus type 1 group M subtype B, UniProt P03366); test: Reverse transcriptase assay (EnzCheck kit, PicoGreen); type: biochemical; details: recombinant wild type p66/p51 HIV-1 RT
T1 construct: Recombinant wild type p66/p51 HIV-1 RT; made in house
Description: The RT assay was performed with the EnzCheck Reverse Transcriptase Assay kit (Molecular Probes, Invitrogen), as described by the Manufacturer. The assay is based on the dsDNA quantitation reagent PicoGreen. […] This condition is met in the assay. A poly(rA) template of approximately 350 bases long and an oligo (dT)16 primer are annealed in a molar ratio of 1:1.2 (60 min at room temperature). Then, 52 ng of the RNA/DNA is brought into each well of a 96-well plate in a volume of 20 μL polymerization buffer (60 mM Tris-HCl, 60 mM KCl, 8 mM MgCl2, 13 mM DTT, 100 μM dTTP, pH 8.1). Then, 5 μL of RT enzyme solution, diluted to a suitable concentration in enzyme dilution buffer (50 mM Tris-HCl, 20% glycerol, 2 mM DTT, pH 7.6), is added. The reactions are incubated at 25 °C for 40 min and then stopped by the addition of EDTA (15 mM fc). Heteroduplexes are then detected by addition of PicoGreen. Signals are read using an excitation wavelength of 490 nm and emission detection at 523 nm using a spectrofluorometer (Safire 2, Tecan). To test the activity of compounds against RT, 1 μL of compound in DMSO was added to each well before the addition of RT enzyme solution. Control wells without compound contained the same amount of DMSO. Results are expressed as relative fluorescence, i.e., the fluorescence signal of the reaction mix with compound divided by the signal of the same reaction mix without compound.

MT-4 cells = test: Cytotoxicity in mock-infected MT-4 cells, MTT method; details: MT-4 cells; relative to RPV CC50
Description: as §1

Structure (SMILES): Cc1cnc(Nc2ccc(C#N)cc2)nc1C(C#N)c1ccc(C#N)cc1 (centres unmarked) [Compound B1, 4-(4-(cyano-(4-cyanophenyl)methyl)-5-methylpyrimidin-2-ylamino)benzonitrile]
- SI (selectivity index, ratio CC50/EC50 (WT)) (HIV-1 IIIB): 356
- EC50 (HIV-1 IIIB): 300 ± 110 nM
- CC50 at 5 days [1]: 109 ± 80 µM
- EC50 [2]: 8030 ± 4430 nM
- EC50 [3]: 3950 ± 220 nM
- EC50 [4]: 7050 ± 960 nM
- EC50 [5]: 4920 ± 300 nM
- EC50 [6]: ≥ 59000 nM
- EC50 [7]: > 109 µM
- IC50 (WT HIV-1 RT): 1460 ± 90 nM
- melting point: 243.1 to 243.7 °C

Structure (SMILES): Cc1cc(C#N)c(Br)cc1C(C#N)c1nc(Nc2ccc(C#N)cc2)ncc1C (centres unmarked) [Compound B6, 4-(4-(cyano-(2-methyl-5-bromo-4-cyanophenyl)methyl)-5-methylpyrimidin-2-ylamino)benzonitrile]
- SI (selectivity index, ratio CC50/EC50 (WT)) (HIV-1 IIIB): 1215
- EC50 (HIV-1 IIIB): 8 ± 4 nM
- CC50 at 5 days [1]: 9.8 ± 3.5 µM
- EC50 [2]: 860 ± 190 nM
- EC50 [3]: 60 ± 10 nM
- EC50 [4]: 330 ± 100 nM
- EC50 [5]: 170 ± 60 nM
- EC50 [6]: 1520 ± 150 nM
- EC50 [7]: > 9.79 µM
- IC50 (WT HIV-1 RT): 60 ± 20 nM
- melting point: 232.3 to 233.9 °C

Structure (SMILES): COc1cc(C#N)ccc1C(C#N)c1ccnc(Nc2ccc(C#N)cc2)n1 (centres unmarked) [Compound A5, 4-(4-(cyano-(2-methoxy-4-cyanophenyl)methyl)-pyrimidin-2-ylamino)benzonitrile]
- SI (selectivity index, ratio CC50/EC50 (WT)) (HIV-1 IIIB): 434
- EC50 (HIV-1 IIIB): 59 ± 11 nM
- fold higher activity than the 3-substituted analogue (A4) (HIV-1 IIIB; WT HIV-1 IIIB, relative to A4): 200 fold
- CC50 at 5 days [1]: 25.8 ± 8.7 µM
- CC50 fold higher than that of RPV (MT-4 cells): about 5 fold
- EC50 [2]: 4720 ± 790 nM
- EC50 [3]: 680 ± 160 nM
- EC50 [4]: 1250 ± 580 nM
- EC50 [5]: 1630 ± 320 nM
- EC50 [6]: ≥ 12400 nM
- EC50 [7]: > 25.9 µM
- melting point: 189.4 to 190.1 °C

Structure (SMILES): Cc1cnc(Nc2ccc(C#N)cc2)nc1C(C#N)c1ccc(C#N)c(Cl)c1C (centres unmarked) [Compound B5, 4-(4-(cyano-(2-methyl-3-chloro-4-cyanophenyl)methyl)-5-methylpyrimidin-2-ylamino)benzonitrile]
- SI (selectivity index, ratio CC50/EC50 (WT)) (HIV-1 IIIB): 370
- EC50 (HIV-1 IIIB): 20 ± 8 nM
- CC50 at 5 days [1]: 8.6 ± 2.2 µM
- EC50 [2]: 1820 ± 400 nM
- EC50 [3]: 390 ± 70 nM
- EC50 [4]: 1020 ± 200 nM
- EC50 [5]: 600 ± 100 nM
- EC50 [6]: 1660 ± 270 nM
- EC50 [7]: > 8.58 µM
- IC50 (WT HIV-1 RT): 70 ± 20 nM
- melting point: 205.4 to 206.5 °C

Structure (SMILES): Cc1cnc(Nc2ccc(C#N)cc2)nc1C(C#N)c1ccc(C#N)cc1Br (centres unmarked) [Compound B4, 4-(4-(cyano-(2-bromo-4-cyanophenyl)methyl)-5-methylpyrimidin-2-ylamino)benzonitrile]
- EC50 (HIV-1 IIIB): 6 ± 1 nM
- CC50 at 5 days [1]: 6.6 ± 1.3 µM
- EC50 [2]: 510 ± 190 nM
- EC50 [3]: 80 ± 30 nM
- EC50 [4]: 160 ± 170 nM
- EC50 [5]: 110 ± 40 nM
- EC50 [6]: 2350 ± 180 nM
- EC50 [7]: > 6.62 µM
- IC50 (WT HIV-1 RT): 60 ± 30 nM

Structure (SMILES): Cc1cnc(Nc2ccc(C#N)cc2)nc1C(C#N)c1ccc(C#N)cc1Cl (centres unmarked) [Compound B3, 4-(4-(cyano-(2-chloro-4-cyanophenyl)methyl)-5-methylpyrimidin-2-ylamino)benzonitrile]
- SI (selectivity index, ratio CC50/EC50 (WT)) (HIV-1 IIIB): 920
- EC50 (HIV-1 IIIB): 10 ± 10 nM
- CC50 at 5 days [1]: 9.6 ± 2.7 µM
- EC50 [2]: 820 ± 150 nM
- EC50 [3]: 80 ± 20 nM
- EC50 [4]: 260 ± 20 nM
- EC50 [5]: 140 ± 30 nM
- EC50 [6]: 4040 ± 700 nM
- EC50 [7]: > 9.56 µM
- IC50 (WT HIV-1 RT): 50 ± 30 nM
- melting point: 213.6 to 214.2 °C
